# Values of other authors, collected in patent publication US20230168217A1, “Test strip for the detection of neutral analytes in a sample” (priority 2020, published 2023).
# Where “and” joins values, the source holds several entries; their conditions need not be identical. Identical values can stand only once. Like-named read-outs stand apart in the source and are kept apart here.
# Key:
# [1] = previously reported
# [2] = not given; remark: listed apart in the source
structure (smiles),measurement,setting,value
COc1cccc(C2(O)CCCCC2CN(C)C)c1 (centres unmarked) [tramadol],concentrations in fatal cases of poisoning,,~3.8 µM
CN1CC[C@]23c4c5ccc(O)c4O[C@H]2[C@@H](O)C=C[C@H]3[C@H]1C5 [morphine],concentrations in fatal cases of poisoning,,approximately 1.75 µM
CC(=O)Nc1ccc(O)cc1 [paracetamol],Protein bound fractions,[1],20-25%
same,Serum levels predicting hepatotoxicity,[2]; 4 hours postingestion,≥ 200 µg/ml and ≥ 1.323 mM
same,Serum levels predicting hepatotoxicity,[2]; 24 h post-ingestion,≥ 6.25 µg/mL and ≥ 43.1 µM
